Experimental data reported in paper PMC5339874, “Fluorene-9-bisphenol is anti-oestrogenic and may cause adverse pregnancy outcomes in mice” (Nature Communications, 2017).
pIC50: −log10 of the molar value. Where two headings read alike, the source gives them in different places.

Molecular target: T1, human oestrogen receptor β (Homo sapiens, UniProt Q92731)
T1 construct: expressed in transfected cells; host or cells: JEG-3 human choriocarcinoma cells
Experiment: Dual-luciferase reporter assay, full-length ERβ and ERE in JEG-3 cells
Assay type: cell-based
Protocol: Dual-luciferase reporter assays were carried out primarily according to the method described in a previous study. In short, full-length sequences of human oestrogen receptor α and β were amplified by RT-PCR using mRNA from MCF-7 (Supplementary Table 3), and inserted into a pSVSPORT1 (Invitrogen); the resulting constructs were termed pSVhERα and pSVhERβ. A reporter plasmid containing ERE was constructed by inserting four tandem repeats of an ERE of Xenopus laevis vitellogenin A2 into a pGL4.23 vector (Promega), and was termed pGL4-ERE-luc. […] The Renilla LUC control reporter construct pGL4.74-TK was purchased from Promega (Madison, WI). Human choriocarcinoma JEG-3 cells (ATCC No. HTB-36) were obtained from the American Type Culture Collection (ATCC; Manassas, VA) and were cultured in minimal essential medium (MEM, Invitrogen, Carlsbad, CA) containing 2 mM L-glutamine, 0.1 mM minimal essential medium nonessential amino acid solution (Invitrogen/Thermo Fisher Scientific, Grand Island, NY), and 10% fetal calf serum (FCS) at 37 °C in a humidified atmosphere containing 5% CO2. The cells (3 × 10^4 cells per well) were seeded in 24-well plates 24 h before transfection. The cells were transfected with pGL4-ERE-luc (5 ng per well), pGL 4.74-TK (0.2 ng per well) and either pSVhERα (5 ng per well) or pSVhERβ (5 ng per well) using Lipofectamine reagent (Invitrogen). At 24 h after transfection, the compounds in DMSO were added to the cultures at a volume ratio (v/v) of 0.1%. The cells were continuously cultured in medium supplemented with 1% charcoal-stripped FCS for another 24 h and then harvested, and cell extracts were assayed for firefly luciferase activity. The assays were performed in quadruplicate, and the results were expressed as the fold induction of the control after normalization against Renilla luciferase activity. Sigmoidal dose-effect curves were calculated using the GraphPad Prism 4 software. The IC50 values were calculated on the basis of the sigmoidal dose-effect curves. […]

T1 sequence (Q92731 whole entry): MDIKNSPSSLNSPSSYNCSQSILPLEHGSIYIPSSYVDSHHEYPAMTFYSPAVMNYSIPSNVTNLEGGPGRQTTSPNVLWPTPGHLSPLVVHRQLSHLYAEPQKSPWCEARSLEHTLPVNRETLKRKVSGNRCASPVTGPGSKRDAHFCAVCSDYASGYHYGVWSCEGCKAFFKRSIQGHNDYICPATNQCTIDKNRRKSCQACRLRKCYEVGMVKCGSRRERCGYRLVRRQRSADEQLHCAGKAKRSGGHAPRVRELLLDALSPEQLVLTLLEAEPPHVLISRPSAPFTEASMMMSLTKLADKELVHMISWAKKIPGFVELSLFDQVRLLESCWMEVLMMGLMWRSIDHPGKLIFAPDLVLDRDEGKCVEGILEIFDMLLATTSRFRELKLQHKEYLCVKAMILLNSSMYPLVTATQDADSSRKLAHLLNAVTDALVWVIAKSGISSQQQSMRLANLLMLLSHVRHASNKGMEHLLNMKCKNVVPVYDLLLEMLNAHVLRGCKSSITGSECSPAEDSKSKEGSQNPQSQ

Oc1ccc(C2(c3ccc(O)cc3)c3ccccc3-c3ccccc32)cc1 [BHPF, 9,9-bis(4-hydroxyphenyl)-fluorene]
pIC50 (coexisted with 1 × 10^−9 M E2, read-out: IC50, anti-oestrogenic activity): 7.12 | oestrogenic activity (compound alone): no oestrogenic activity | IC50 (vs 1 nM E2, read-out: IC50 converted to mass concentration (converted)): 75.3 nM
